From patent publication US10889812B2, “Short non-coding protein regulatory RNAs (sprRNAs) and methods of use” (University of Maryland, Baltimore, priority 2014, dated 2021)

Key:
[1] = test system: HBE4 cells; experiment: Cell cycle analysis by flow cytometry, HBE4 cells synchronized at S phase; assay type: cell-based, human; conditions: measured every 2 hrs, vs Scr
Description: We then wanted to determine whether piR-L-163 (SEQ ID NO:282) plays a functional role in human bronchial epithelial cells. We treated HBE4 cells as well as primary normal human bronchial epithelial (NHBE) cells with piR-L-163 complementary DNA oligonucleotides (Ant-163) (SEQ ID NO:496) or RNA oligonucleotides (Ant-163R) (SEQ ID NO:497) in the experiment. […] Cell cycle distributions were measured every 2 hrs.
Cell cycle distribution was analyzed by Flow Cytometry (Becton-Dickinson). Cells were synchronized in growth factor-free Keratinocyte-SFM with 2 mM Thymidine (Catalog No. T1895, Sigma-Aldrich) for 24 hrs. Transfection is performed using Lipofectamine™ RNAiMAX (Invitrogen) according to its manual, and the final concentration of annealed oligo RNAs is 400 nM. Four hour after transfection, culture medium was replaced by complete Keratinocyte-SFM supplemented with L-Glutamine, prequalified human recombinant EGF 1-53 and BPE. Cells were harvested at different time points, washed in phosphate-buffer saline (PBS), fixed with ice-cold 70% ethanol, and strained in PI/RNase solution (BD Pharmigen). The samples were analyzed on a FACScan flow cytometer in combination with BD lysis software (Becton-Dickinson).

[2] = molecular target: T1, mutant form of moesin with RRRKPDT deletion (Moesin-DM) (Homo sapiens, UniProt P26038, DEL293-299); experiment: IP/RT-PCR binding to introduced moesin in H522 cells; conditions: H522 cells co-transfected
T1 construct: expressed in transfected cells; host or cells: H522 cells, pcDNA3.1(+) plasmid
Text: (§1) To determine potential element of ERM proteins critical for their binding with piR-L-163, we analyzed human and Drosophila moesin sequences using BindN (http://bioinfo.ggc.org/bindn/) and identified RRRKPDT (SEQ ID NO:488) at position 293-299 as a candidate RNA binding element (FIG. 12a, b). We then constructed plasmids containing either wild-type human moesin (Moesin-WT) or a mutant form of moesin with RRRKPDT (SEQ ID NO:488) deletion (Moesin-DM). Both plasmids produce high levels of moesin proteins in the transfected cells (FIG. 5d). We used two cell lines (H522 and HBE4) to test if this element contributes to the binding between moesin and piR-L-163. H522 cells expressed extremely low level of endogenous p-ERM (FIG. 5c) and very low level of piR-L-163 (FIG. 11a). H522 cells transfected with piR-L-163 were simultaneously transfected with either Moesin-WT or Moesin-DM to determine the potential binding ability of the introduced moesin proteins with piR-L-163. We also used the non-functional piR-L-163M1 mutant to replace piR-L-163 in the experiment as a negative control. […] We next transfected HBE4 cells which expressed both p-ERM and piR-L-163 (FIG. 4e and FIG. 11a) with either Moesin-WT or Moesin-DM after knocked down the endogenous moesin in the cells. […]

[3] = molecular target: T2, wild-type human moesin (Moesin-WT) (Homo sapiens, UniProt P26038); experiment: as above; conditions: H522 cells co-transfected
T2 construct: expressed in transfected cells; host or cells: H522 cells, pcDNA3.1(+) plasmid
Text: as §1

[4] = test system: H1792 cells; experiment: Quantitative cell migration assay; assay type: cell-based, human; conditions: H1792, vs Scr or Ant-163
Text: For cell migration, we used two complementary assays. […] To compensate potential differences in the cell numbers among different treatment conditions, we seeded 10% less cells for Ant-163 treated HBE4 cells and 10% more cells for piR-L-163 transfected H1792 cells.
Two complimentary methods were used. For quantitative fluorescent dye assay, Innocyto™ Cell migration Assay kit (EMD Millipore) was used. Briefly, 24 hrs after treatment, 1×10^5 cells (10% less for Ant-163 treated cells or 10% more for piR-L-163 treated cells) were loaded to the upper chamber with growth factor-free Keratinocyte-SFM for (HBE4 cells) or serum-free DMEM (for H1792 cells) with the bottom chamber exposed to completed culture medium. Negative controls were used with 3 μM Latrunculin A. After 12 hrs incubation, fluorescence was measured using a fluorescence plate reader 485 nm (excitation) and 520 nm (emission) according to the manufacturer's instruction. For wound-healing assay, cells (24 hrs after treatment with different DNA or RNA oligonucleotides) were grown to confluence followed by scratching with a pipette tip to create a gap. The floating cells were removed and the gaps were monitored/photographed every 12 hrs.

T1 sequence (P26038 with tags, fused parts or gaps DEL293-299): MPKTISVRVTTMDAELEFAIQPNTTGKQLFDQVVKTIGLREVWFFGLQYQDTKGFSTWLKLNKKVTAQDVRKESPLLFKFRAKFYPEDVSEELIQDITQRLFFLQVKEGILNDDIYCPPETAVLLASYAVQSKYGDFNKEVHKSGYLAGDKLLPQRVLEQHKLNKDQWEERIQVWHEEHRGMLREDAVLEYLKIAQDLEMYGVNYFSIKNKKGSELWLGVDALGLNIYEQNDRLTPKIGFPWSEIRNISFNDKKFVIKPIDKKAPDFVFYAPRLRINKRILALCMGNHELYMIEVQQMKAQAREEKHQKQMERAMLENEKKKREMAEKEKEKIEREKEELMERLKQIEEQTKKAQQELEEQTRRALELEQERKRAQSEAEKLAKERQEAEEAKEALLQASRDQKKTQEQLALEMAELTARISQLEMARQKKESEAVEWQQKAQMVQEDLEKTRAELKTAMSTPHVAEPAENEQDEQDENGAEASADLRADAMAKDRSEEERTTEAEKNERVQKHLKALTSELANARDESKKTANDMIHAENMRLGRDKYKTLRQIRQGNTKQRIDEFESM
T2 sequence (P26038 whole entry): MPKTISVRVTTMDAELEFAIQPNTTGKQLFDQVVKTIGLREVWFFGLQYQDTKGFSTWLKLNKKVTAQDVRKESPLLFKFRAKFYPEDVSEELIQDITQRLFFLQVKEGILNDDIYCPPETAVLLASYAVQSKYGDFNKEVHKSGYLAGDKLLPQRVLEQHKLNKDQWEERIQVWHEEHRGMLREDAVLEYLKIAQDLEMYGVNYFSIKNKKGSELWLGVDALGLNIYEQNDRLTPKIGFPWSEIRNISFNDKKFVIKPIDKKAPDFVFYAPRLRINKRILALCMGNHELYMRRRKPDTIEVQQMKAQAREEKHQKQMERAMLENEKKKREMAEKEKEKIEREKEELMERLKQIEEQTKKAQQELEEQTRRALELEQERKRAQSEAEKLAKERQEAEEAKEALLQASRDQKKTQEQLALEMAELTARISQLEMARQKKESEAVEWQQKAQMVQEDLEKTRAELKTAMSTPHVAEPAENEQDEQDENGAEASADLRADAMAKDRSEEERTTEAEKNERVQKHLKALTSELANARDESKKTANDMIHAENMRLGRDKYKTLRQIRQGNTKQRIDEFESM

Substance | cell cycle distribution [1] | binding to Moesin-DM [2] | binding to Moesin-WT [3] | cell migration [4]
Ant-163: DNA sequence antisense to piR-L-163, SEQ ID NO:496, 5′-GGTCAGAGAATCAAAGTAACATCATGATAT-3′ (DNA, backbone and methylation of C not given here) | accelerated DNA synthesis and G2-M accumulation | – | – | –
piR-L-163: sprRNA, SEQ ID NO:282; piRNA-L aligned to intron 10 of LAMC2; AUAUCAUGAUGUUACUUUGAUUCUCUGACC with 3′ 2′-O-methylation (listed as RNA, chemistry not fully specified; listed as Homo sapiens) | – | failed to bind | bound to piR-L-163 | significantly decreased cell migration
